Key:
[1] = Dog ADME study: excretion, mass balance, metabolite profiling with radiolabeled ribociclib; format: in vivo
Protocol: (§1) ADME studies (including QWBA in pigmented and non‐pigmented rats) using radiolabeled ribociclib were conducted in rat and dog. Relevant institutional and national guides for the care and use of laboratory animals were followed.
(§2) Metabolite profiling was conducted on plasma, urine, bile, and feces samples in the rat and dog ADME studies, and further metabolite profiling on plasma and milk was conducted in a dedicated rat milk excretion study.
(§3) Plasma samples obtained from these studies were extracted with equal volumes of acetonitrile. Additional extractions of the protein pellet with acetonitrile and/or acetone were conducted as needed to maximize radioactivity recovery. Feces samples were initially extracted with two to four volumes of acetonitrile. Additional extractions of the pellet following centrifugation and removal of supernatant were conducted with acetonitrile and/or acetone as needed to maximize radioactivity recovery. Urine and bile samples were analyzed directly following centrifugation. Radioactivity recoveries following the centrifugation step were measured by LSC. Milk samples were extracted with two volumes of acetonitrile, following centrifugation and removal of supernatant, the pellets were re‐suspended in 100 µL of water and re‐extracted with 200 µL acetonitrile.
(§4) Metabolite profiling in the ADME studies was conducted using liquid chromatography‐mass spectrometry. Radioactivity profiles were generated by diversion of the majority of the post‐column flow into 96‐well yttrium silicate scintillation‐coated plates (Deepwell Lumaplates; Perkin Elmer Life and Analytical Sciences Inc), by means of Gilson FC204 fraction collectors (Gilson). Metabolites were identified by mass spectrometry (Waters QTOF operating under MassLynx 4.1) and, where feasible, by comparison with authentic reference standards.

[2] = Human ADME study: safety assessments; format: in vivo; details: single oral 600 mg
Description: Safety analysis included monitoring and recording of all adverse events, laboratory tests (ophthalmologic exam, hematology, blood chemistry, and urinalysis), vital signs, electrocardiogram, and physical examination.

[3] = parameters: method as in earlier work; details: humans, total of central and peripheral volume; ref 22 (Lu et al, manuscript submitted); cited from earlier work
[4] = test system: plasma protein; test: In vitro plasma protein binding (ultrafiltration), human; format: in vitro ADME; details: rat, dog
Protocol: (§5) Stock solutions were spiked into plasma to achieve the intended concentrations. After incubation for 1 hour at 37°C under constant gentle agitation, the spiked plasma samples (n = 3) were centrifuged (2000 g, 10 min, 37°C) in pre‐warmed Centrifree devices. Total radioactivity was determined in the ultrafiltrate (Cu, concentration of unbound compound) and in the sample introduced into the reservoir before ultrafiltration (Cp). The unbound (fu) and the bound (fb) fraction in plasma were calculated as follows: fu (%) = Cu/Cp × 100; fb (%) = 100‐Fu (%).

[5] = as above; format: in vitro ADME; details: plasma, 10-10 000 ng/mL
Protocol: as §5

[6] = Rat ADME study: excretion, mass balance, metabolite profiling with radiolabeled ribociclib; format: in vivo
Protocol: as §1, §2, §3, §4

[7] = Integrated estimation of ribociclib elimination pathways in humans; parameters: species or system human
[8] = molecular target: T1, CYP2J2 (Homo sapiens, UniProt P51589); test: Enzyme kinetics with recombinant CYP2J2 and scaling to HLM; format: in vitro ADME
T1 construct: purchased BD Biosciences
T1 sequence (P51589 1-502): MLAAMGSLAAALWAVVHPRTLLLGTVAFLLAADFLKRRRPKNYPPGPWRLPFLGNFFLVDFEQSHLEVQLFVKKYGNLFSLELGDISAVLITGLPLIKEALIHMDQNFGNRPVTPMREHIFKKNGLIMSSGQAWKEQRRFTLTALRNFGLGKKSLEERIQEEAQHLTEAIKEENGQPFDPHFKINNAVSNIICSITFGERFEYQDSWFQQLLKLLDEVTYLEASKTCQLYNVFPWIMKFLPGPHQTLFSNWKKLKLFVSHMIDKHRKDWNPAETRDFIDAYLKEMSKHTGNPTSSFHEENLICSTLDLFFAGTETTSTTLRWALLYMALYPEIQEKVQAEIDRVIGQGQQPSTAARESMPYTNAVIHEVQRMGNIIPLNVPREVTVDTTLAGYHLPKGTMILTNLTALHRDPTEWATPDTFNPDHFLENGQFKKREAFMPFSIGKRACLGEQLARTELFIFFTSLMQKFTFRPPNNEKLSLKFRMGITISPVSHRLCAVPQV
Protocol: In vitro incubations were carried out in 100‐mM potassium phosphate buffer (pH 7.4) and 5‐mM MgCl2 with a total volume of 200 µL. Substrate and either human liver microsomes (HLM, BD Biosciences, mixed gender pool of n = 50) or recombinant human enzymes (BD Biosciences) were added and pre‐incubated for 3 minutes at 37°C. The reaction was started by addition of a fresh solution of NADPH (1 mmol/L final concentration). The samples were incubated at 37°C with agitation of 500 rpm. For incubations with CYP2A6, CYP2C9, CYP2C18, and CYP4A11, the phosphate buffer was replaced by TRIS buffer (100 mmol/L, pH 7.4) and for flavin‐containing monooxygenases (FMOs), a glycine buffer (50 mM, pH 9.5) was used.
The enzymatic reaction was stopped and the protein was precipitated by addition of an equal volume of methanol. After 30 min at −80°C, the samples were centrifuged at 30'000 x g for 15 min. The supernatant was withdrawn. Aliquots were analyzed by LSC and the supernatant was diluted with water to obtain a final solution containing less than 20% of the organic solvent. For samples of low substrate concentration, supernatants were evaporated to dryness under nitrogen, then re‐suspended in water containing less than 20% of methanol. Samples were analyzed by HPLC combined with radiodetection. […]

[9] = oral dosing of radiolabeled ribociclib
[10] = rat, oral dosing of radiolabeled ribociclib
[11] = human estimate based on rat ADME data

In the case of CN(C)C(=O)c1cc2cnc(Nc3ccc(N4CCNCC4)cn3)nc2n1C1CCCC1 [ribociclib, Ribociclib], the “Recovery of radioactivity in mass balance study” value [1] is reported as “approximately 90%”, the “radioactivity found in feces” value [1, 9] is reported as 68.8% and the “radioactivity found in urine” value [1, 9] is reported as 18.5%. For the same molecule, the ribociclib in feces ([1]; p.o.) was 10.7 % of the oral dose, the “unchanged ribociclib in urine” value ([1]; p.o.) was 13.4 % of the dose and the “abdominal discomfort, share of subjects” value ([2]; 2 subjects of six) was 33.3%. For the same molecule, the “discontinuation due to an AE” value [2] was “no subjects discontinued”, the “serious adverse events (SAEs)” value [2] was “No serious adverse events” and the “severity of all AEs” value [2] was “grade 1”. The “subjects with an AE suspected to be related to the study drug (headache)” value [2] was “one subject”, the “subjects who experienced at least one adverse event (AE)” value ([2]; six healthy male subjects) was “Five” and the “apparent volume of distribution at steady state” value [3] was 1090 L. For the same molecule, the “difference in unbound fraction in plasma between species” value [4] was “up to 1.7 fold”, the fraction unbound at 1 h [5] was 0.3 ± 0.02 and the “Recovery of radioactivity in mass balance study” value ([6]; rat) was “approximately 90%”. For the same molecule, the Absorption ([6]; rat ADME study, derived from AUC of total radiolabeled components after i.v. and p.o. dosing) was 66%, the “dose eliminated in bile (radioactivity)” value ([6]; rat, i.v.) was 61.4 % of dose and the “ribociclib in feces of bile duct-cannulated rats” value ([6]; rat, i.v.) was 8 % of the dose. For the same molecule, the “unchanged ribociclib recovered in bile” value ([6]; rat, i.v.) was 1 % of the dose, the “radioactivity found in feces” value [6, 10] was 84.0% and the “radioactivity found in urine” value [6, 10] was 5.9%. For the same molecule, the ribociclib in feces ([6]; rat, p.o.) was 22.4 % of the oral dose, the “unchanged ribociclib in urine” value ([6]; rat, p.o.) was 2.7 % of the dose and the “biliary elimination, share of total” value [7, 11] was 1%. For the same molecule, the “elimination by intestinal excretion/secretion, share of total” value [7, 11] was 8%, the “elimination by hepatic metabolism, share of total” value ([7]; human, integrated estimate) was “approx. 84%” and the “elimination by renal excretion, share of total” value ([7]; human, integrated estimate) was 7%. The “fm,CYP” value ([8]; CYP2J2, share of total CYP-mediated metabolism in HLM) was 0.8% and the fumic ([8]; CYP2J2 incubation) was 0.86.
